Experimental data published in US20160297851A1, “BROAD SPECTRUM […]” (priority 2012, published 2016).
Values after ≈ are worked out from the molar mass of the structure shown. Like-named read-outs stand apart in the source and are kept apart here.

How the values were obtained:
Lactococcus lactis = assay: microbe, parasite or virus in culture; type: cell-based; conditions: several values = different isolates/subspecies
S. aureus Rosenbach 328 = assay: microbe, parasite or virus in culture; type: cell-based; conditions: Staphylococcus aureus; MRSA strain
[1] = test system: Lactobacillus gasseri ATCC 19992; assay: microbe, parasite or virus in culture; type: cell-based; conditions: ATCC19992
[2] = test system: Klebsiella pneumoniae ATCC 43816; assay: microbe, parasite or virus in culture; type: cell-based; conditions: ATCC43816
[3] = biological target: full-length wild type S. aureus SPase (Pro-variant) (Staphylococcus aureus, UniProt P0A070); assay: Equilibrium binding, arylomycin fluorescence
[4] = test system: wild type S. epidermidis RP62A; assay: microbe, parasite or virus in culture; type: cell-based, Staphylococcus epidermidis; conditions: for MIC: Sensitive strain (SPase without the resistance-conferring Pro)
[5] = test system: Streptococcus agalactiae COH-1; assay: microbe, parasite or virus in culture; type: cell-based; conditions: Streptococcus agalactiae, COH1
Staphylococcus aureus = type: cell-based; conditions: several values = heterogeneity within different strains
[6] = test system: Staphylococcus haemolyticus; assay: microbe, parasite or virus in culture; type: cell-based
Yersinia pestis Kim+6 = assay: microbe, parasite or virus in culture; type: cell-based
[7] = test system: Rhodococcus equi ATCC 6939; assay: microbe, parasite or virus in culture; type: cell-based; conditions: Rhodococcus (subgen. Prescottella) equi, ATCC6939
Helicobacter pylori SS1 = assay: microbe, parasite or virus in culture; type: cell-based; conditions: amount for a 1000-fold decrease in viable cells
[8] = test system: S. epidermidis PAS9002 (SPase S31P); type: cell-based, Staphylococcus epidermidis; conditions: Ser to Pro mutation at position 31 of SpsIB
[9] = test system: Streptococcus pneumoniae R800; assay: microbe, parasite or virus in culture; type: cell-based
Clostridium difficile = assay: microbe, parasite or virus in culture; type: cell-based; conditions: Clostridioides difficile
Bacteroides fragilis = assay: microbe, parasite or virus in culture; type: cell-based
[10] = biological target: P84S variant of truncated E. coli SPase (Escherichia coli, UniProt P00803, P84S); assay: Equilibrium binding, arylomycin fluorescence; conditions: micelles; average of three independent experiments
Chlamydia trachomatis = assay: microbe, parasite or virus in culture; type: cell-based; conditions: eradication from human HeLa 229 cells, 24 hours
[11] = test system: wild type P. aeruginosa PAO1; assay: microbe, parasite or virus in culture; type: cell-based, Pseudomonas aeruginosa
[12] = test system: lepB(P29S) S. aureus 8325; assay: microbe, parasite or virus in culture; type: cell-based, Staphylococcus aureus; conditions: Table 3, P3 position derivatives; unit not given
[13] = test system: Brevibacillus brevis ATCC 8246; assay: microbe, parasite or virus in culture; type: cell-based; conditions: ATCC8246
Rhodococcus erythropolis = assay: microbe, parasite or virus in culture; type: cell-based
[14] = test system: spsB(S29P) S. epidermidis RP62A; assay: microbe, parasite or virus in culture; type: cell-based, Staphylococcus epidermidis
[15] = test system: Lactobacillus acidophilus ATCC 4356; assay: microbe, parasite or virus in culture; type: cell-based; conditions: ATCC4356
Prevotella copris = assay: microbe, parasite or virus in culture; type: cell-based
[16] = test system: lepB(P84L) E. coli MG1655; assay: microbe, parasite or virus in culture; type: cell-based, Escherichia coli; conditions: Table 3, P3 position derivatives; unit not given
wild type E. coli MG1655 = assay: microbe, parasite or virus in culture; type: cell-based, Escherichia coli
[17] = biological target: full-length P29S mutant S. aureus SPase (Ser-variant) (Staphylococcus aureus, UniProt P0A070, P29S); assay: Equilibrium binding, arylomycin fluorescence
[18] = test system: Corynebacterium efficiens DSM 44549; assay: microbe, parasite or virus in culture; type: cell-based
Clostridium bolteae = assay: microbe, parasite or virus in culture; type: cell-based; conditions: Enterocloster bolteae
[19] = test system: Rhodococcus opacus DSM 1069; assay: microbe, parasite or virus in culture; type: cell-based
[20] = test system: Streptococcus pyogenes M1-5448; assay: microbe, parasite or virus in culture; type: cell-based
wild type S. aureus 8325 = assay: microbe, parasite or virus in culture; type: cell-based, Staphylococcus aureus
human HeLa 229 cells = conditions: none observed up to the highest concentration examined
Clostridium perfringens = assay: microbe, parasite or virus in culture; type: cell-based
Enterococcus faecalis = assay: microbe, parasite or virus in culture; type: cell-based
Bacillus subtilis 168 = assay: microbe, parasite or virus in culture; type: cell-based
[21] = Staphylococcus epidermidis, read-out: MIC

CCCCCCCCCCCCCCCC(=O)N(C)[C@H](CO)C(=O)N[C@H](C)C(=O)NCC(=O)N(C)[C@@H]1C(=O)N[C@@H](C)C(=O)N[C@H](C(=O)O)Cc2ccc(O)c(c2)-c2cc1ccc2O [Arylomycin C16, arylomycin C16]
MIC (Lactococcus lactis): 16 µg/mL (≈ 18.2 µM)
MIC (S. aureus Rosenbach 328): 25 µg/mL (≈ 28.4 µM)
MIC [1]: > 128 µg/mL
MIC [2]: > 128 µg/mL
Kd [3]: 1280 ± 278 nM
MIC [4]: 0.25 µg/mL (≈ 0.284 µM)
MIC ([4]; listed as arylomycin C16): 0.25 µg/mL (≈ 0.284 µM)
MIC [4, 21]: 0.5 µg/mL (≈ 0.567 µM)
minimal inhibitory concentration (MIC) ([4]; Table 3, P3 position derivatives, unit not given): 0.25
MIC [5]: > 128 µg/mL
MIC (Staphylococcus aureus): 16 to 32 µg/mL
MIC [6]: 2 µg/mL (≈ 2.27 µM)
MIC (Yersinia pestis Kim+6): 4 µg/mL (≈ 4.54 µM)
MIC [7]: 16 µg/mL (≈ 18.2 µM)
MIC (Helicobacter pylori SS1; Helicobacter pylori, SS1, read-out: MIC): 4 µg/mL (≈ 4.54 µM)
MIC (Helicobacter pylori SS1): 4 µg/mL (≈ 4.54 µM)
fold elevated MIC compared to the wild type strain [8]: greater than 256 fold
MIC [9]: 16 µg/mL (≈ 18.2 µM)
MIC ([9]; Streptococcus pneumoniae, R800, read-out: MIC): 8 µg/mL (≈ 9.08 µM)
MIC ([9]; listed as arylomycin A-C16): 8 µg/mL (≈ 9.08 µM)
MIC (Clostridium difficile): > 16 µg/mL
MIC (Bacteroides fragilis): > 16 µg/mL
Kd [10]: 39 ± 15 nM
MIC (Chlamydia trachomatis): 6 µg/mL (≈ 6.81 µM)
MIC ([11]; Pseudomonas aeruginosa, PAO1, Resistant strain (wild type), read-out: MIC): > 64 µg/mL
MIC ([11]; Resistant strain (wild type)): >128 µg/mL
minimal inhibitory concentration (MIC) [12]: 4
MIC [13]: > 64 µg/mL
MIC (Rhodococcus erythropolis): 16 µg/mL (≈ 18.2 µM)
fold elevated MIC compared to the wild type strain ([14]; Ser to Pro mutation at position 29 of SpsIB): 32 fold
MIC [14, 21]: 8 µg/mL (≈ 9.08 µM)
MIC [15]: > 128 µg/mL
MIC (Prevotella copris): > 16 µg/mL
minimal inhibitory concentration (MIC) [16]: 2
MIC (wild type E. coli MG1655; Escherichia coli, MG1655, Resistant strain (wild type), read-out: MIC): > 64 µg/mL
MIC (wild type E. coli MG1655; Resistant strain (wild type)): >128 µg/mL
Kd [17]: 130 ± 53 nM
MIC [18]: 16 µg/mL (≈ 18.2 µM)
MIC (Clostridium bolteae): > 16 µg/mL
MIC [19]: 2 µg/mL (≈ 2.27 µM)
MIC ([19]; Rhodococcus opacus, DSM1069, read-out: MIC): 1 µg/mL (≈ 1.13 µM)
MIC [20]: 16 µg/mL (≈ 18.2 µM)
MIC ([20]; Streptococcus pyogenes, M15448, read-out: MIC): 8 µg/mL (≈ 9.08 µM)
MIC ([20]; listed as arylomycin A-C16): 8 µg/mL (≈ 9.08 µM)
activity in words (wild type S. aureus 8325): no activity
MIC (wild type S. aureus 8325; Staphylococcus aureus, Resistant strain (wild type), read-out: MIC): > 64 µg/mL
concentration with adverse effects on the human cells (human HeLa 229 cells): > 20000 ng/mL
MIC (Clostridium perfringens): > 16 µg/mL
MIC (Enterococcus faecalis): > 64 µg/mL
MIC (Bacillus subtilis 168): > 128 µg/mL
